Experimental data reported in patent publication US20200216416A1, “QUINOLINE COMPOUNDS AS INHIBITORS OF TAM AND MET KINASES” (Array BioPharma Inc., priority 2019, published 2020).
Like-named read-outs stand apart in the source and are kept apart here.

Target: T1, MDR1 (P-gp) (Homo sapiens, UniProt P08183)
T1 construct: expressed in transfected cells; host or cells: LLC-PK1
Test: MDR1 LLC-PK1 permeability assay
Assay type: in vitro ADME
Settings: pig, MDR1 transfected LLC-PK1 cells; for Papp at 2 h, 1 μM: permeability coefficient (Papp)
Description: MDR1 transfected LLC-PK1 cells were cultured and plated according to manufacturer's recommendations with the exception that the passage media contained only 2% fetal bovine serum to extend passage time out to seven days.
Both positive and negative controls were used to assess functionality of P-gp efflux in the assay. Stock solutions for assay controls and the test article were prepared in DMSO for final test concentrations of 10 and 1 μM, respectively. Final organic concentration in the assay was 1%. All dosing solutions contained 10 μM lucifer yellow to monitor LLC-PK1 cell monolayer integrity.
For the apical to basolateral determination (A to B), 75 μL of the test article in transport buffer were added to the apical side of the individual transwells and 250 μL of basolateral media, without compound or lucifer yellow, were added to each well. For the basolateral to apical determination (B to A), 250 μL of test article in transport buffer were added to each well and 75 μL transport buffer, without compound or lucifer yellow, were added to each transwell. All tests were performed in triplicate, and each compound was tested for both apical to basolateral and basolateral to apical transport. The plates were incubated for 2 hours on a Lab-Line Instruments Titer Orbital Shaker (VWR, West Chester, Pa.) at 50 rpm and 37° C. with 5% CO2. All culture plates were removed from the incubator and 50 μL of media were removed from the apical and basolateral portion of each well and added to 150 μL of 1 μM labetalol in 2:1 acetonitrile (acetonitrile): H2O, v/v.
The plates were read using a Molecular Devices (Sunnyvale, Calif.) Gemini Fluorometer to evaluate the lucifer yellow concentrations at excitation/emission wavelengths of 425/535 nm. These values were accepted when found to be below 2% for apical to basolateral and 5% basolateral to apical flux across the MDR1-transfected LLC-PK1-transfected cell monolayers. The plates were sealed and the contents of each well analyzed by LC-MS/MS. The compound concentrations were determined from the ratio of the peak areas of the compound to the internal standard (labetalol) in comparison to the dosing solution.
The LC-MS/MS system was comprised of an HTS-PAL autosampler (Leap Technologies, Carrboro, N.C.), an HP1200 HPLC (Agilent, Palo Alto, Calif.), and a MDS Sciex 4000 Q Trap system (Applied Biosystems, Foster City, Calif.). […] The total run time, including re-equilibration, for a single injection was 1.2 minutes. Mass spectrometric detection of the analytes was accomplished using the ion spray positive mode. Analyte responses were measured by multiple reaction monitoring (MRM) of transitions unique to each compound (the protonated precursor ion and selected product ions for each test article and m/z 329 to m/z 162 for labetalol, the internal standard).
The permeability coefficient (Papp) is calculated from the following equation: […]
where Cd, V, t and C0 are the detected concentration (μM), the volume on the dosing side (mL), the incubation time (s) and the initial dosing concentration (μM), respectively. The calculations for Papp were made for each replicate and then averaged. In this assay, a compound is defined has having high permeability if the permeability is greater than 8×10^−6 cm/sec, a compound is defined has having medium permeability if the permeability is from 2×10^−6 cm/sec to 8×10^−6 cm/sec, and a compound is defined has having low permeability if the permeability is less than 2×10^−6 cm/sec.
An efflux ratio was calculated from the mean apical to basolateral (A-B) Papp data and basolateral to apical (B-A) Papp data:
Efflux ratio=Papp(B−A)/Papp(A−B)

[1] = LLC-PK1, efflux ratio = Papp(B-A)/Papp(A-B), read-out: MDR1 Pe Ratio
[2] = LLC-PK1, Papp(B−A)/Papp(A−B), test article 1 μM, 2 hours, 37° C., read-out: Efflux ratio

T1 sequence (P08183 whole entry): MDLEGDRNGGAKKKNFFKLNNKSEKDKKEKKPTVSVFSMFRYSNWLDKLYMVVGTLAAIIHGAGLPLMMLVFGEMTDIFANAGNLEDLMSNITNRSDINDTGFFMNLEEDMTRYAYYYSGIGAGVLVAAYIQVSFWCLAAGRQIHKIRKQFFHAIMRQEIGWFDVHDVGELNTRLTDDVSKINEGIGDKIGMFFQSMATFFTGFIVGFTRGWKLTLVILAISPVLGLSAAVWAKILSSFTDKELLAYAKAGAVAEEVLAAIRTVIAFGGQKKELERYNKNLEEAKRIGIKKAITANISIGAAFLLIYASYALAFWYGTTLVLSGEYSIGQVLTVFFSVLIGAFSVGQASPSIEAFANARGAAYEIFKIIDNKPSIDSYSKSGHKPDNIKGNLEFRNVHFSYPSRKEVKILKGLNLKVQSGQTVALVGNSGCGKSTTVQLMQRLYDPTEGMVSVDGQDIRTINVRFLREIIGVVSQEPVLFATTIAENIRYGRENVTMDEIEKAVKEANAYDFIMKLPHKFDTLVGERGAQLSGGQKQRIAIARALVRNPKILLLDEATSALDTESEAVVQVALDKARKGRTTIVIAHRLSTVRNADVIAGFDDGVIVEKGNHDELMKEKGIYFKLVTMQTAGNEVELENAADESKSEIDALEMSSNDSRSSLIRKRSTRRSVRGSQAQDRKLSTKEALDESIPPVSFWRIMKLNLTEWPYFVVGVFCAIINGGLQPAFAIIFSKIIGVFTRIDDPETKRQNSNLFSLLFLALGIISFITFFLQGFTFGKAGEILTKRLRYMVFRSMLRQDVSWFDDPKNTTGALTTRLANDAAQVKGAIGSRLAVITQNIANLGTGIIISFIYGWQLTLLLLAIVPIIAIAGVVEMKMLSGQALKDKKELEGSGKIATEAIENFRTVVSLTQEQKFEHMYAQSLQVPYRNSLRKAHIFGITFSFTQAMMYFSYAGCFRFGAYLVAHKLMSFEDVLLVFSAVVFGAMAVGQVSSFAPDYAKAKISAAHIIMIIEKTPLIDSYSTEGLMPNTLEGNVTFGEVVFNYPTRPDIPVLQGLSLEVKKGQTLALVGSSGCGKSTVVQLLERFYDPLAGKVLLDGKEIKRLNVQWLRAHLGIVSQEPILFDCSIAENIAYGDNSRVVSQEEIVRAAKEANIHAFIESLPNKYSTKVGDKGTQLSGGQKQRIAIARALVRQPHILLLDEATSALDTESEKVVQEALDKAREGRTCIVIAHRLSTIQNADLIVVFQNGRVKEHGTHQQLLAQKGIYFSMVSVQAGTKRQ

efflux ratio at 2 h, 1 μM [1]	Papp at 2 h, 1 μM	efflux ratio at 2 h, 1 μM [2]	Compound
7.1	14 ×10⁻⁶ cm/s		COc1cc2nccc(Oc3ccc(NC(=O)c4cn(C(C)C)cc(-c5ccc(F)cc5OC)c4=O)nc3)c2cc1OC [Example 32, N-(5-((6,7-dimethoxyquinolin-4yl)oxy)pyridin-2-yl)-5-(4-fluoro-2-methoxyphenyl)-1-isopropyl-4-oxo-1,4-dihydropyridine-3-carboxamide]
24	< 1 ×10⁻⁶ cm/s		CCCC(CCC)n1cc(C(=O)Nc2ccc(Oc3ccnc4cc(OC)c(OC)cc34)cn2)c(=O)c(-c2ccc(F)cc2F)c1 [Example 17, 5-(2,4-difluorophenyl)-N-(5-((6,7-dimethoxyquinolin-4yl)oxy)pyridin-2-yl)-1-(heptan-4-yl)-4-oxo-1,4-dihydropyridine-3-carboxamide]
8.3	15 ×10⁻⁶ cm/s		COc1cc2nccc(Oc3ccc(NC(=O)c4cn(C)cc(-c5ccc(F)cc5)c4=O)nc3)c2cc1OC [Example 2]
210	9.5 ×10⁻⁶ cm/s		COc1cc2nccc(Oc3ccc(NC(=O)c4cn(CC(=O)N(C)C)cc(-c5ccc(F)c(F)c5)c4=O)nc3)c2cc1OC [Example 24, 5-(3,4-difluorophenyl)-N-(5-((6,7-dimethoxyquinolin-4-yl)oxy)pyridin-2-yl)-1-(2-(dimethylamino)-2-oxoethyl)-4-oxo-1,4-dihydropyridine-3-carboxamide]
8.2	11 ×10⁻⁶ cm/s		COCCn1cc(C(=O)Nc2ccc(Oc3ccnc4cc(OC)c(OC)cc34)cn2)c(=O)c(-c2ccc(F)cc2)c1 [Example 7, N-(5((6,7-dimethoxyquinolin-4-yl)oxy)pyridin-2-yl)-5-(4-fluorophenyl)-1-(2-methoxyethyl)-4-oxo-1,4-dihydropyridine-3-carboxamide]
0.9	7 ×10⁻⁶ cm/s	3.5	CCn1cc(C(=O)Nc2ccc(Oc3ccnc4ccc(OC)cc34)cn2)c(=O)c(-c2ccc(F)cc2)c1 [Example 39, 1-ethyl-5-(4-fluorophenyl)-N-(5-((6-methoxyquinolin-4-yl)oxy)pyridin-2-yl)-4-oxo-1,4-dihydropyridine-3-carboxamide]
5.3	< 1 ×10⁻⁶ cm/s		COc1cc2nccc(Oc3ccc(NC(=O)c4cn(CCC(C)C)cc(-c5ccc(F)cc5)c4=O)nc3)c2cc1OC [Example 34, N-(5-((6,7-dimethoxyquinolin-4yl)oxy)pyridin-2-yl)-5-(4-fluorophenyl)-1-isopentyl-4-oxo-1,4-dihydropyridine-3-carboxamide]
26	14 ×10⁻⁶ cm/s		COc1cc2nccc(Oc3ccc(NC(=O)c4cn(CC(C)(C)O)cc(-c5ccc(F)cc5)c4=O)nc3)c2cc1OC [Example 9, N-(5-((6,7-dimethoxyquinolin-4-yl)oxy)pyridin-2-yl)-5-(4-fluorophenyl)-1-(2-hydroxy-2-methylpropyl)-4-oxo-1,4-dihydropyridine-3-carboxamide]
125	10 ×10⁻⁶ cm/s		COc1cc2nccc(Oc3ccc(NC(=O)c4cn(CC(=O)N5CCCC5)cc(-c5ccc(F)cc5F)c4=O)nc3)c2cc1OC [Example 14]
2.8	15 ×10⁻⁶ cm/s	3.5	COc1cc2nccc(Oc3ccc(NC(=O)c4cn(C(C)C)c(C)c(-c5ccc(F)c(F)c5)c4=O)nc3)c2cc1OC [Example 28, 5-(3,4-difluorophenyl)-N-(5-((6,7-dimethoxyquinolin-4yl)oxy)pyridin-2-yl)-1-isopropyl-6-methyl-4-oxo-1,4-dihydropyridine-3-carboxamide]
144	8 ×10⁻⁶ cm/s		COc1cc2nccc(Oc3cnc(NC(=O)c4cn(C(C)C)c(C)c(-c5ccc(F)cc5)c4=O)nc3)c2cc1OC [Example 55, N-(5-((6,7-dimethoxyquinolin-4-yl)oxy)pyrimidin-2-yl)-5-(4-fluorophenyl)-1-isopropyl-6-methyl-4-oxo-1,4-dihydropyridine-3-carboxamide]
1.5	10 ×10⁻⁶ cm/s	3.5	COc1cc2nccc(Oc3ccc(NC(=O)c4cn(C(C)C)cc(-c5ccc(F)cc5F)c4=O)nc3)c2cc1OC [Example 4]
136	6.4 ×10⁻⁶ cm/s		COc1cc2nccc(Oc3ccc(NC(=O)c4cn(CC(=O)N(C)C)cc(-c5ccc(Cl)cc5)c4=O)nc3)c2cc1OC [Example 25]
4.7	< 1 ×10⁻⁶ cm/s		CC(C)n1cc(C(=O)Nc2ccc(Oc3ccnc4cc(OC(F)(F)F)ccc34)cn2)c(=O)c(-c2ccc(F)cc2)c1 [Example 50, 5-(4-fluorophenyl)-1-isopropyl-4-oxo-N-(5-((7-(trifluoromethoxy)quinolin-4-yl)oxy)pyridin-2-yl)-1,4-dihydropyridine-3-carboxamide]
4.9	7 ×10⁻⁶ cm/s		COc1cc2nccc(Oc3ccc(NC(=O)c4cn(C(C)C)cc(-c5ccc(F)c(F)c5)c4=O)nc3)c2cc1OC [Example 6]
4.3	1 ×10⁻⁶ cm/s		COc1cc2nccc(Oc3ccc(NC(=O)c4cn(CCC(C)C)cc(-c5ccc(F)cc5F)c4=O)nc3)c2cc1OC [Example 36, 5-(2,4-difluorophenyl)-N-(5-((6,7-dimethoxyquinolin-4yl)oxy)pyridin-2-yl)-1-isopentyl-4-oxo-1,4-dihydropyridine-3-carboxamide]
2.7	7 ×10⁻⁶ cm/s		CCCn1cc(C(=O)Nc2ccc(Oc3ccnc4cc(OC)c(OC)cc34)cn2)c(=O)c(-c2ccc(F)cc2)c1 [Example 10, N-(5((6,7-dimethoxyquinolin-4-yl)oxy)pyridin-2-yl)-5-(4-fluorophenyl)-4-oxo-1-propyl-1,4-dihydropyridine-3-carboxamide]
31			COc1cc2nccc(Oc3ccc(NC(=O)c4cn(CC(C)C)cc(-c5ccc(F)cc5)c4=O)nc3)c2cc1OC [Example 11, N-(5-((6,7-dimethoxyquinolin-4-yl)oxy)pyridin-2-yl)-5-(4-fluorophenyl)-1-isobutyl-4-oxo-1,4-dihydropyridine-3-carboxamide]
105	6 ×10⁻⁶ cm/s		COc1cc2nccc(Oc3ccc(NC(=O)c4cn(CC(=O)N(C)C)cc(-c5ccc(F)cc5)c4=O)nc3)c2cc1OC [Example 23, N-(5-((6,7-dimethoxyquinolin-4yl)oxy)pyridin-2-yl)-1-(2-(dimethylamino)-2-oxoethyl)-5-(4-fluorophenyl)-4-oxo-1,4-dihydropyridine-3-carboxamide]
112	6 ×10⁻⁶ cm/s		COc1cc2nccc(Oc3ccc(NC(=O)c4cn(CC(=O)N(C)C)cc(-c5ccc(F)cc5F)c4=O)nc3)c2cc1OC [Example 13, 5-(2,4-difluorophenyl)-N-(5((6,7-dimethoxyquinolin-4-yl)oxy)pyridin-2-yl)-1-(2-(dimethylamino)-2-oxoethyl)-4-oxo-1,4-dihydropyridine-3-carboxamide]
2	4 ×10⁻⁶ cm/s	3.5	CCC(CC)n1cc(C(=O)Nc2ccc(Oc3ccnc4cc(OC)c(OC)cc34)cn2)c(=O)c(-c2ccc(F)cc2F)c1 [Example 16, 5-(2,4-difluorophenyl)-N-(5-((6,7-dimethoxyquinolin-4yl)oxy)pyridin-2-yl)-4-oxo-1-(pentan-3-yl)-1,4-dihydropyridine-3-carboxamide]
44	3 ×10⁻⁶ cm/s		COc1cc2nccc(Oc3ccc(NC(=O)c4c[nH]cc(-c5ccc(F)cc5)c4=O)nc3)c2cc1OC [Example 26, N-(5-((6,7-dimethoxyquinolin-4yl)oxy)pyridin-2-yl)-5-(4-fluorophenyl)-4-oxo-1,4-dihydropyridine-3-carboxamide]
